The results in this text go back to patent publication US9365522B2, “Pyrazole amide derivative” (AMGEN INC., priority 2015, dated 2016).

In this assay the target is T1, ligand binding domain of human ROR gamma (Homo sapiens, UniProt P51449).
T1 construct: NM_001001523; expressed in transfected cells; host or cells: HEK293T
T1 sequence (P51449 247-497 isoform P51449-2): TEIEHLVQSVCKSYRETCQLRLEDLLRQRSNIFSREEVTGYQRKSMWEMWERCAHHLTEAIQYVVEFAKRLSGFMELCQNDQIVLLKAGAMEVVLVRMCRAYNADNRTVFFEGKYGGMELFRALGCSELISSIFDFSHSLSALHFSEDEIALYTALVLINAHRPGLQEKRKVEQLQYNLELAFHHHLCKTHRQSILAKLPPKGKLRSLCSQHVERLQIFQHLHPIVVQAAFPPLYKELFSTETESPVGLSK
The assay can be described thus: ROR gamma reporter gene assay (GAL4-RORγ LBD luciferase, Dual-Glo). The following applies: HEK293T cells transfected with pM-ROR gamma, 8 concentrations 3.5 nM to 10.5 μM, 24 h incubation; read-out: result (pIC50, inhibition of RORγ transcriptional activity) (converted). It counts as cell-based. An outline of the steps:
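Inhibition of RORγ-driven transcription was measured in HEK293T cells expressing a GAL4 fusion of the human RORγ LBD (aa 247-497), with renilla luciferase as internal control. Cells in 10% charcoal-stripped serum received compound (3.5 nM–10.5 μM) for 24 h.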
Background: Reporter assays use an easily measured gene product as a stand-in for the process of interest.

For `CC(C)CC1(N(CC(=O)c2c(Cl)cncc2Cl)C(=O)c2cnn([C@H]3CC[C@](C)(C(=O)O)CC3)c2C(F)(F)F)CC1` [Example 319, trans-4-(4-((2-(3,5-dichloropyridin-4-yl)-2-oxoethyl)-(1-(2-methylpropyl)cyclopropyl)carbamoyl)-5-(trifluoromethyl)pyrazol-1-yl)-1-methylcyclohexane-1-carboxylic acid], the IC50 is 141000 pM. Then `CC1(C)[C@@H]2C[C@H](N(CC(=O)c3c(Cl)cccc3Cl)C(=O)c3cnn(C45CCC(C(=O)O)(CC4)CC5)c3C(F)(F)F)C[C@@H]21` [Example 320, 4-(4-((2-(2,6-dichlorophenyl)-2-oxoethyl)((1R,3r,5S)-6,6-dimethylbicyclo[3.1.0]hexan-3-yl)carbamoyl)-5-(trifluoromethyl)-1H-pyrazol-1-yl)bicyclo [2.2.2] octane-1-carboxylic acid], with 9770 pM; and `Cc1cc(Cl)c(C(=O)CN(C(=O)c2cnn(C34CCC(C(=O)O)(CC3)CC4)c2C(F)(F)F)[C@H]2C[C@@H]3[C@H](C2)C3(C)C)c(Cl)c1` [Example 321, 4-(4-((2-(2,6-dichloro-4-methylphenyl)-2-oxoethyl)((1R,3r,5S)-6,6-dimethylbicyclo[3.1.0]hexan-3-yl)carbamoyl)-5-(trifluoromethyl)-1H-pyrazol-1-yl)bicyclo[2.2.2]octane-1-carboxylic acid], with 11700 pM. On to `CC1(C)C(CN(CC(=O)c2c(Cl)cncc2Cl)C(=O)c2cnn(C34CCC(C(=O)O)(CC3)CC4)c2C(F)(F)F)C1(C)C` [Example 322, 4-(4-((2-(3,5-dichloropyridin-4-yl)-2-oxoethyl)-((2,2,3,3-tetramethylcyclopropyl)methyl)carbamoyl)-5-(trifluoromethyl)pyrazol-1-yl)bicyclo[2.2.2]octane-1-carboxylic acid], for which the IC50 is 8130 pM. As for `CC1(C)CCC(N(CC(=O)c2c(Cl)cncc2Cl)C(=O)c2cnn([C@H]3CC[C@](C)(C(=O)O)CC3)c2C(F)(F)F)CO1` (stereo partly drawn) [Example 323, trans-4-(4-((2(3,5-dichloropyridin-4-yl)-2-oxoethyl)-(6,6-dimethyloxan-3-yl)carbamoyl)-5-(trifluorornethyl)pyrazol-1-yl)-1-methylcyclohexane-1-carboxylic acid], the IC50 is 380000 pM.

`C[C@]1(C(=O)O)CC[C@H](n2ncc(C(=O)N(CC(=O)c3c(Cl)cncc3Cl)CC3(O)CCCC3)c2C(F)(F)F)CC1` [Example 324, trans-4-(4-((2-(3,5-dichloropyridin-4-yl)-2-oxoethyl)-((1-hydroxycyclopentyl)methyl)carbamoyl)-5-(trifluoromethyl)pyrazol-1-yl)-1-methylcyclohexane-1-carboxylic acid]: the IC50 was 380000 pM. In the case of `CC1(C)C(CN(CC(=O)c2c(Cl)cncc2Cl)C(=O)c2cnn([C@H]3CC[C@](C)(C(=O)O)CC3)c2C(F)(F)F)C1(C)C` [Example 325, trans-4-(4-((2-(3,5-dichloropyridin-4-yl)-2-oxoethyl)-((2,2,3,3-tetramethylcyclopropyl)methyl)carbamoyl)-5-(trifluoromethyl)pyrazol-1-yl)-1-methylcyclohexane-1-carboxylic acid], the IC50 is 10700 pM. Then `CC(C)(F)CN(CC(=O)c1c(Cl)cncc1Cl)C(=O)c1cnn([C@H]2CC[C@](C)(C(=O)O)CC2)c1C(F)(F)F` [Example 326, trans-4-(4-((2-(3,5-dichloropyridin-4-yl)-2-oxoethyl)-(2-fluoro-2-methylpropyl)carbamoyl)-5-(trifluoromethyl)pyrazol-1-yl)-1-methylcyclohexane-1-carboxylic acid], with 102000 pM; and `CC(C)(F)CN(CC(=O)c1c(Cl)cncc1Cl)C(=O)c1cnn(C23CCC(C(=O)O)(CC2)CC3)c1C(F)(F)F` [Example 327, 4-(4-((2-(3,5-dichloropyridin-4-yl)-2-oxoethyl)-(2-fluoro-2-methylpropyl)carbamoyl)-5-(trifluoromethyl)pyrazol-1-yl)bicyclo[2.2.2]octane-1-carboxylic acid], with 97700 pM; and `CC(C)(C)CN(CCc1c[nH]c2ccccc12)C(=O)c1cnn([C@H]2CC[C@](C)(C(=O)O)CC2)c1C(F)(F)F` [Example 328, trans-4-(4-(2,2-dimethylpropyl-(2-(1H-indol-3-yl)ethyl)carbamoyl)-5-(trifluoromethyl)pyrazol-1-yl)-1-methylcyclohexane-1-carboxylic acid], with 2.95e+06 pM. Regarding `O=C(CN(CC1(C(F)(F)F)CC1)C(=O)c1cnn(C23CCC(C(=O)O)(CC2)CC3)c1C(F)(F)F)c1c(Cl)cncc1Cl` [Example 329, 4-(4-((2-(3,5-dichloropyridin-4-yl)-2-oxoethyl)-((1-(trifluoromethyl)cyclopropyl)methyl)carbamoyl)-5-(trifluoromethyl)pyrazol-1-yl)bicyclo[2.2.2]octane-1-carboxylic acid], the IC50 is 14800 pM. Take `C[C@]1(C(=O)O)CC[C@H](n2ncc(C(=O)N(CC(=O)c3c(Cl)cncc3Cl)CC3(C(F)(F)F)CC3)c2C(F)(F)F)CC1` [Example 330]: the IC50 was 24000 pM.

As to `CC(C)(C)[C@@H]1C[C@H]1N(CC(=O)c1c(Cl)cncc1Cl)C(=O)c1cnn([C@H]2CC[C@](C)(C(=O)O)CC2)c1C(F)(F)F` [Example 331, trans-4-(4-(((1R,2S)-2-tert-butylcyclopropyl)-(2-(3,5-dichloropyridin-4-yl)-2-oxoethyl)carbamoyl)-5-(trifluoromethyl)pyrazol-1-yl)-1-methylcyclohexane-1-carboxylic acid], the IC50 is 102000 pM. Then `CC(COC(C)(C)C)N(CC(=O)c1c(Cl)cncc1Cl)C(=O)c1cnn([C@H]2CC[C@](C)(C(=O)O)CC2)c1C(F)(F)F` (stereo partly drawn) [Example 332, trans-4-(4-((2-(3,5-dichloropyridin-4-yl)-2-oxoethyl)-(1-((2-methylpropan-2-yl)oxy)propan-2-yl)carbamoyl)-5-(trifluoromethyl)pyrazol-1-yl)-1-methylcyclohexane-1-carboxylic acid], with 513000 pM.

`CC1(C)[C@@H]2C[C@H](N(CC(=O)c3c(F)cncc3Cl)C(=O)c3cnn([C@H]4CC[C@](C)(C(=O)O)CC4)c3C(F)(F)F)C[C@@H]21` [Example 333, trans-4-(4-((2-(3-chloro-5-fluoropyridin-4-yl)-2-oxoethyl)((1R,3r,5S)-6,6-dimethylbicyclo[3.1.0]hexan-3-yl)carbamoyl)-5-(trifluoromethyl)-1H-pyrazol-1-yl)-1-methylcyclohexanecarboxylic acid]: the IC50 was 17000 pM.

As for `CC(C)(C)CN(CCc1c[nH]c2cccc(Cl)c12)C(=O)c1cnn([C@H]2CC[C@](C)(C(=O)O)CC2)c1C(F)(F)F` [Example 334, trans-4-(4-(2-(4-chloro-1H-indol-3-yl)ethyl-(2,2-dimethylpropyl)carbamoyl)-5-(trifluoromethyl)pyrazol-1-yl)-1-methylcyclohexane-1-carboxylic acid], the IC50 is 56200 pM. Regarding `CC1(C)[C@@H]2C[C@H](N(CC(=O)c3c(F)cncc3Cl)C(=O)c3cnn(C45CCC(C(=O)O)(CC4)CC5)c3C(F)(F)F)C[C@@H]21` [Example 335, 4-(4-((2-(3-chloro-5-fluoropyridin-4-yl)-2-oxoethyl)((1R,3r,5S)-6,6-dimethylbicyclo[3.1.0]hexan-3-yl)carbamoyl)-5-(trifluoromethyl)-1H-pyrazol-1-yl)bicyclo(2.2.2)octane-1-carboxylic acid], the IC50 was 12300 pM. As for `COc1cccc(Cl)c1C(O)CN(C(=O)c1cnn([C@H]2CC[C@](C)(C(=O)O)CC2)c1C(F)(F)F)C1CCC(C)(C)CC1` (stereo partly drawn) [Example 336, trans-4-(4-((2-(2-chloro-6-methoxyphenyl)-2-hydroxyethyl)-(4,4-dimethylcyclohexyl)carbamoyl)-5-(trifluoromethyl)pyrazol-1-yl)-1-methylcyclohexane-1-carboxylic acid], the IC50 was 145000 pM. As to `CC1(C)CCC(N(CC(=O)c2c(Cl)cc(F)cc2Cl)C(=O)c2cnn([C@H]3C[C@](C)(C(=O)O)C3)c2C(F)(F)F)CC1` [Example 339, trans-3-(4-((2-(2,6-dichloro-4-fluorophenyl)-2-oxoethyl)-(4,4-dimethylcyclohexyl)carbamoyl)-5-(trifluoromethyl)pyrazol-1-yl)-1-methylcyclobutane-1-carboxylic acid], the IC50 was 83200 pM. As for `CC(C)[C@@H]1C[C@@H]1N(CC(=O)c1c(Cl)cncc1Cl)C(=O)c1cnn([C@H]2CC[C@](C)(C(=O)O)CC2)c1C(F)(F)F` [Example 340, trans-4-(4-((2-(3,5-dichloropyridin-4-yl)-2-oxoethyl)-((1S,2S)-2-propan-2-ylcyclopropyl)carbamoyl)-5-(trifluoromethyl)pyrazol-1-yl)-1-methylcyclohexane-1-carboxylic acid], the IC50 was 123000 pM. Then `COc1cccc(Cl)c1[C@@H](O)CN(C(=O)c1cnn([C@H]2CC[C@](C)(C(=O)O)CC2)c1C(F)(F)F)[C@H]1C[C@@H]2[C@H](C1)C2(C)C` [Example 341, trans-4-(4-((2-(2-chloro-6-methoxyphenyl)-2-hydroxyethyl)((1R,3r,5S)-6,6-dimethylbicyclo[3.1.0]hexan-3-yl)carbamoyl)-5-(trifluoromethyl)-1H-pyrazol-1-yl)-1-methylcyclohexanecarboxylic acid], with 759000 pM.
